Paper PMC12073402, “A Selective MAP3K1 Inhibitor Facilitates Discovery of NPM1 as a Member of the Network” (Molecules, 2025)

Experiments:
Assay in all cases: KiNativ kinome profiling in PANC-1 lysate
Type in all cases: binding
AMPKa1, AMPKa2 = conditions: 5 µM
Description: (§1) To assess target engagement and selectivity, we opted to conduct a kinome screen (KiNativ) in PANC-1 cell lysates. This chemical proteomics (chemoproteomics) methodology allows for the evaluation of small-molecule binding to protein kinases in native systems such as cell lysates. KiNativ utilizes a soluble chemical probe comprising ATP linked to biotin through an acyl-phosphate bond. The probe covalently modifies conserved lysine residues found in the ATP binding site of essentially all protein kinases (Figure 2A). To profile a kinase inhibitor, cell lysates are treated with a vehicle control or inhibitor prior to addition of the desthiobiotin ATP probe. The ATP probe occupies the ATP binding site in the kinase, which enables the conserved lysines to be biotinylated. […] The cell lysates are digested with a protease (trypsin), biotinylated peptides are affinity-enriched on streptavidin beads, and the labeled peptides are analyzed by liquid chromatography–tandem MS (Figure 2B). If an inhibitor binds to a kinase, it competes with the ATP, thus resulting in a loss of that kinase-associated peptide signal, allowing for the quantitative measurement of inhibitor binding. Unlike recombinant enzyme assays, KiNativ IC50 values are a direct measure of active site binding instead of enzymatic activity.
(§2) Kinome profiling quantified the activity of 51-106 against >300 kinases in the PANC-1 cells. The results summarized in Figure 2C are the average of duplicate control and duplicate treated samples with 5 μM of 51-106 or DMSO.
(§3) KiNativ assay with 51-106.
(§4) ATP Loop: ATP binding loop
(§5) Activation Loop: Activation loop
(§6) ATP: ATP site in non-canonical kinase (e.g. lipid kinase)
(§7) Protein Kinase Domain: Other lysine within kinase domain, possibly not in ATP binding site
(§8) Other: Labeling of residue outside of the protein kinase domain, possibly not in ATP binding site
(§9) No change. NB = No Binding (≤ 0)
(§10) >100% increase in MS signal (>2 fold increase)
(§11) Data points inhibited […] & not considered significant are left uncolored
(§12) Note: This KiNativ dataset is the result of an analysis of duplicate treated samples and control samples.
(§13) The % changes in MS signals being reported are statistically significant (Student T -test score < 0.04)

ARAF = target: T1, ARAF (Homo sapiens, UniProt P10398); conditions: Lys2
T1 construct: endogenous in cells; host or cells: PANC-1 cell lysate
Description: as §1, §2, §3, §4, §5, §6, §7, §8, §9, §10, §11, §12, §13

ATM = target: T2, ATM (Homo sapiens, UniProt Q13315); conditions: ATP
T2 construct: endogenous in cells; host or cells: PANC-1 cell lysate
Description: as §1, §2, §3, §4, §5, §6, §7, §8, §9, §10, §11, §12, §13

BRAF, BRAF V600E = target: T3, BRAF, BRAF V600E (Homo sapiens, UniProt P15056); conditions: Lys2
T3 construct: endogenous in cells; host or cells: PANC-1 cell lysate
Description: as §1, §2, §3, §4, §5, §6, §7, §8, §9, §10, §11, §12, §13

CDK11, CDK8 = conditions: 5 µM; Lys2; DLKPANILVMGEGPER
Description: as §1, §2, §3, §4, §5, §6, §7, §8, §9, §10, §11, §12, §13

CDK4 = target: T4, CDK4 (Homo sapiens, UniProt P11802); conditions: Lys2
T4 construct: endogenous in cells; host or cells: PANC-1 cell lysate
Description: as §1, §2, §3, §4, §5, §6, §7, §8, §9, §10, §11, §12, §13

CHK1 = target: T5, CHK1 (Homo sapiens, UniProt O14757); conditions: Lys2
T5 construct: endogenous in cells; host or cells: PANC-1 cell lysate
Description: as §1, §2, §3, §4, §5, §6, §7, §8, §9, §10, §11, §12, §13

DNAPK = target: T6, DNAPK (Homo sapiens, UniProt P78527); conditions: ATP
T6 construct: endogenous in cells; host or cells: PANC-1 lysate
Description: as §1, §2, §3, §4, §5, §6, §7, §8, §9, §10, §11, §12, §13

[1] = system: FGFR1, FMS, PDGFRb, TYRO3; conditions: 5 µM; Lys1; VAVKMLK
Description: as §1, §2, §3, §4, §5, §6, §7, §8, §9, §10, §11, §12, §13

ITPK1 = target: T7, ITPK1 (Homo sapiens, UniProt Q13572); conditions: ATP Loop
T7 construct: we opted to conduct a kinome screen (KiNativ) in PANC-1 cell lysates; endogenous in cells; host or cells: PANC-1 cell lysate
Description: as §1, §2, §3, §4, §5, §6, §7, §8, §9, §10, §11, §12, §13

MAP2K1 = target: T8, MAP2K1 (Homo sapiens, UniProt Q02750); conditions: Lys2
T8 construct: endogenous in cells; host or cells: PANC-1 cell lysate
Description: as §1, §2, §3, §4, §5, §6, §7, §8, §9, §10, §11, §12, §13

MAP2K7 = target: T9, MAP2K7 (Homo sapiens, UniProt O14733); conditions: Lys2
T9 construct: endogenous in cells; host or cells: PANC-1 cell lysate
Description: as §1, §2, §3, §4, §5, §6, §7, §8, §9, §10, §11, §12, §13

MAST4 = target: T10, MAST4 (Homo sapiens, UniProt O15021); conditions: Lys2
T10 construct: endogenous in cells; host or cells: PANC-1
Description: as §1, §2, §3, §4, §5, §6, §7, §8, §9, §10, §11, §12, §13

[2] = system: MSK1 domain1, MSK2 domain1; conditions: 5 µM; ATP Loop; VLGTGAYGKVFLVR
Description: as §1, §2, §3, §4, §5, §6, §7, §8, §9, §10, §11, §12, §13

NEK1 = target: T11, NEK1 (Homo sapiens, UniProt Q96PY6)
T11 construct: endogenous in cells; host or cells: PANC-1 cell lysate
Description: as §1, §2, §3, §4, §5, §6, §7, §8, §9, §10, §11, §12, §13

PAN3 = target: T12, PAN3 (Homo sapiens, UniProt Q58A45); conditions: ATP
T12 construct: endogenous in cells; host or cells: PANC-1 cell lysate
Description: as §1, §2, §3, §4, §5, §6, §7, §8, §9, §10, §11, §12, §13

PCTAIRE1, PCTAIRE3 = conditions: 5 µM; Lys2; DLKPQNLLINER
Description: as §1, §2, §3, §4, §5, §6, §7, §8, §9, §10, §11, §12, §13

PIP4K2C = target: T13, PIP4K2C (Homo sapiens, UniProt Q8TBX8); conditions: ATP
T13 construct: endogenous in cells; host or cells: PANC-1 cell lysate
Description: as §1, §2, §3, §4, §5, §6, §7, §8, §9, §10, §11, §12, §13

ROCK1 = target: T14, ROCK1 (Homo sapiens, UniProt Q13464); conditions: Other
T14 construct: endogenous in cells; host or cells: PANC-1 cell lysate
Description: as §1, §2, §3, §4, §5, §6, §7, §8, §9, §10, §11, §12, §13

RON = target: T15, RON (Homo sapiens, UniProt Q04912); conditions: Lys1
T15 construct: endogenous in cells; host or cells: PANC-1 cell lysate
Description: as §1, §2, §3, §4, §5, §6, §7, §8, §9, §10, §11, §12, §13

SRPK1 = target: T16, SRPK1 (Homo sapiens, UniProt Q96SB4); conditions: Lys2
T16 construct: endogenous in cells; host or cells: PANC-1 cell lysate
Description: as §1, §2, §3, §4, §5, §6, §7, §8, §9, §10, §11, §12, §13

TAO1, TAO3 = conditions: 5 µM; Lys2; DIKAGNILLTEPGQVK
Description: as §1, §2, §3, §4, §5, §6, §7, §8, §9, §10, §11, §12, §13

TLK2 = target: T17, TLK2 (Homo sapiens, UniProt Q86UE8)
T17 construct: endogenous in cells; host or cells: PANC-1 cell lysate
Description: as §1, §2, §3, §4, §5, §6, §7, §8, §9, §10, §11, §12, §13

ULK1 = target: T18, ULK1 (Homo sapiens, UniProt O75385); conditions: Lys2
T18 construct: endogenous in cells; host or cells: PANC-1 cell lysate
Description: as §1, §2, §3, §4, §5, §6, §7, §8, §9, §10, §11, §12, §13

Wnk1, Wnk2 = conditions: 5 µM; ATP Loop; GSFKTVYK
Description: as §1, §2, §3, §4, §5, §6, §7, §8, §9, §10, §11, §12, §13

ZAK = target: T19, ZAK (Homo sapiens, UniProt Q9NYL2); conditions: Lys1
T19 construct: endogenous in cells; host or cells: PANC-1 cell lysate
Description: as §1, §2, §3, §4, §5, §6, §7, §8, §9, §10, §11, §12, §13

T13 sequence (Q8TBX8 whole entry): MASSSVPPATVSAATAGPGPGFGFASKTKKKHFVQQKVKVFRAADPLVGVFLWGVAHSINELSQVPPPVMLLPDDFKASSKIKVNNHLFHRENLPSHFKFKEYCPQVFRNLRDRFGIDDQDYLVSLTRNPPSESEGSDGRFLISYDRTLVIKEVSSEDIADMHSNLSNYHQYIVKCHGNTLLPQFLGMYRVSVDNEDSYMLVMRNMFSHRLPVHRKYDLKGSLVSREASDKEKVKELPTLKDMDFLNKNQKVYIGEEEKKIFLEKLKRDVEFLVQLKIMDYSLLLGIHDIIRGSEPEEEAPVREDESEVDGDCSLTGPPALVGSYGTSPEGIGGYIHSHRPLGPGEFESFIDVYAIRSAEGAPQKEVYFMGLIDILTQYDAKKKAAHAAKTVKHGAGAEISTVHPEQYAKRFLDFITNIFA
T11 sequence (Q96PY6 whole entry): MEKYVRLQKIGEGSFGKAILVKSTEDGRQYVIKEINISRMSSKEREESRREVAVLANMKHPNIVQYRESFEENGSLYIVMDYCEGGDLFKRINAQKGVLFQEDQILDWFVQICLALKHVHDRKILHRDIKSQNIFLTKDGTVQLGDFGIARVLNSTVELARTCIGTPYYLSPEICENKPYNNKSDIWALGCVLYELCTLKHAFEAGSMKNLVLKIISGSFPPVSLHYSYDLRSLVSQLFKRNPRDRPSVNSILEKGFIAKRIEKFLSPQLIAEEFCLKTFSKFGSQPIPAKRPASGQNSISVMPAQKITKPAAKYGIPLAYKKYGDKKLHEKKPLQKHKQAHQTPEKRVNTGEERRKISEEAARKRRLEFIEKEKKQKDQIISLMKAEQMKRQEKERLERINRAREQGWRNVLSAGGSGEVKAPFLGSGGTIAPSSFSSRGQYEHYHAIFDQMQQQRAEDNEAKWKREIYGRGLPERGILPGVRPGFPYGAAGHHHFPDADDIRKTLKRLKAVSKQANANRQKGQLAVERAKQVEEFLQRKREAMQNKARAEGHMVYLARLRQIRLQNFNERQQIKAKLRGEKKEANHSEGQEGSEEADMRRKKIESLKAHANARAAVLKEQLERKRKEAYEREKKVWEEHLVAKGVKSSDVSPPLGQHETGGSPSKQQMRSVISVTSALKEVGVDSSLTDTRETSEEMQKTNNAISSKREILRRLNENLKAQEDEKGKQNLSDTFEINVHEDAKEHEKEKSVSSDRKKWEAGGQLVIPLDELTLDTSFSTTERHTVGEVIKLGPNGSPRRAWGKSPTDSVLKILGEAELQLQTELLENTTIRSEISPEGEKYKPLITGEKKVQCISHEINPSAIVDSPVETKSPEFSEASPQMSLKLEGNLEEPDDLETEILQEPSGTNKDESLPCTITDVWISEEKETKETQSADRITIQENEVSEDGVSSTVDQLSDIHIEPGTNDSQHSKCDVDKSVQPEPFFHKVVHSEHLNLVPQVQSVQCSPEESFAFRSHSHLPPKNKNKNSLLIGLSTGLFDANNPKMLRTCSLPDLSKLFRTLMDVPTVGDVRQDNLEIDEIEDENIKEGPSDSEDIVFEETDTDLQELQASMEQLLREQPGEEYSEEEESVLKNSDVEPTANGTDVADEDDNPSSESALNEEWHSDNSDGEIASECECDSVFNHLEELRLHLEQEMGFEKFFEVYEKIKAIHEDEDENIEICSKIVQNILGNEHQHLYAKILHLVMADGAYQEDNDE
T17 sequence (Q86UE8 whole entry): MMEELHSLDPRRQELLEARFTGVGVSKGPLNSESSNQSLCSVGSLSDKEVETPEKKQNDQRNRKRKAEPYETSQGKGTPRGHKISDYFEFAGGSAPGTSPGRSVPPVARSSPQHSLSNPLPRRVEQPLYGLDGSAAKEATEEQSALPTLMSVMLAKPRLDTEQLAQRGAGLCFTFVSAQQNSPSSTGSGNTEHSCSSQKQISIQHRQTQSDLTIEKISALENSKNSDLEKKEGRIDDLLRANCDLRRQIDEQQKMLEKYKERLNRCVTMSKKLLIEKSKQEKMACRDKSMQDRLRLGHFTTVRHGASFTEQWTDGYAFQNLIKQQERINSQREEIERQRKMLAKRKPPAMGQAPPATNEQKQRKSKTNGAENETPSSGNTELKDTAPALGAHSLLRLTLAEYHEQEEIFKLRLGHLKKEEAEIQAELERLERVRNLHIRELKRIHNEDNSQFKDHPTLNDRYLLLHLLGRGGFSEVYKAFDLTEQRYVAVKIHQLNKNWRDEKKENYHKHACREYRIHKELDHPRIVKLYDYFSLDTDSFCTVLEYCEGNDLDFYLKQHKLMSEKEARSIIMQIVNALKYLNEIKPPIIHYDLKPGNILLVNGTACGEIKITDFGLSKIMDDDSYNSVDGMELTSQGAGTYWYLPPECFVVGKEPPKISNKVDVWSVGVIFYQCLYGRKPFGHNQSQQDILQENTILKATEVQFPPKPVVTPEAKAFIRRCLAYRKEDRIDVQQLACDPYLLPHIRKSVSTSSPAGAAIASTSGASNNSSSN
T12 sequence (Q58A45 whole entry): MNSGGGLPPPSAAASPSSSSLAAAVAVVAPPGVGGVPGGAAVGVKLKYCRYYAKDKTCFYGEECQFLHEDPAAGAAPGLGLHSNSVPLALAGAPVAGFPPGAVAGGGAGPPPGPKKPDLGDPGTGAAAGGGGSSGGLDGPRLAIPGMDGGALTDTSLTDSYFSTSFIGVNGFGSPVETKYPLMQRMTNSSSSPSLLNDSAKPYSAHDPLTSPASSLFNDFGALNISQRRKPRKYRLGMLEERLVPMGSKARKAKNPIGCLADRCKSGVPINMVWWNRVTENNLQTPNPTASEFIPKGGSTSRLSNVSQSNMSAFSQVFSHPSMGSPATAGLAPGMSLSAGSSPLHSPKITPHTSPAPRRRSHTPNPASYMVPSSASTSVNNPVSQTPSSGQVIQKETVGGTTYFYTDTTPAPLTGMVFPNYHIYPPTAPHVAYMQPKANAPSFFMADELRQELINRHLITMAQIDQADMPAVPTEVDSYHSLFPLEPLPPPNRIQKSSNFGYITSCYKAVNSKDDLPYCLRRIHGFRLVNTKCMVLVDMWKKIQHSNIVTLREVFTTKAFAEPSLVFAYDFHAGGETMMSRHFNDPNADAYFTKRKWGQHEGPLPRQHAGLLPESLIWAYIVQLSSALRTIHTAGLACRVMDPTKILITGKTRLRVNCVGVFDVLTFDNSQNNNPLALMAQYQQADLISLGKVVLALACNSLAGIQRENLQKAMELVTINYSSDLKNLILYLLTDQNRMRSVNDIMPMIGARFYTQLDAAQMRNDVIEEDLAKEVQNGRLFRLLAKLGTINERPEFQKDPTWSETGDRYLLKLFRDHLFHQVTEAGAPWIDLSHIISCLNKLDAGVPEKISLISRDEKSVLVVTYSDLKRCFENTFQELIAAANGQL
T8 sequence (Q02750 whole entry): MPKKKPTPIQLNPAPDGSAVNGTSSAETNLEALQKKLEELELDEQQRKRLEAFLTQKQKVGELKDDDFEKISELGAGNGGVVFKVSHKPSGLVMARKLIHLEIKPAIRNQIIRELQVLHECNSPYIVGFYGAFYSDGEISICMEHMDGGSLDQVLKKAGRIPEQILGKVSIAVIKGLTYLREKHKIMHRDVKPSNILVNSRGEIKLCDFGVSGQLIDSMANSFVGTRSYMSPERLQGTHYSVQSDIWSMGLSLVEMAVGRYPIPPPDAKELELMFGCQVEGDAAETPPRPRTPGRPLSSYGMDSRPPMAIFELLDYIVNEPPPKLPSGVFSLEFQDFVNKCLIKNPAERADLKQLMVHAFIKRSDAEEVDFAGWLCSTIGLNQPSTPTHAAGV
T5 sequence (O14757 whole entry): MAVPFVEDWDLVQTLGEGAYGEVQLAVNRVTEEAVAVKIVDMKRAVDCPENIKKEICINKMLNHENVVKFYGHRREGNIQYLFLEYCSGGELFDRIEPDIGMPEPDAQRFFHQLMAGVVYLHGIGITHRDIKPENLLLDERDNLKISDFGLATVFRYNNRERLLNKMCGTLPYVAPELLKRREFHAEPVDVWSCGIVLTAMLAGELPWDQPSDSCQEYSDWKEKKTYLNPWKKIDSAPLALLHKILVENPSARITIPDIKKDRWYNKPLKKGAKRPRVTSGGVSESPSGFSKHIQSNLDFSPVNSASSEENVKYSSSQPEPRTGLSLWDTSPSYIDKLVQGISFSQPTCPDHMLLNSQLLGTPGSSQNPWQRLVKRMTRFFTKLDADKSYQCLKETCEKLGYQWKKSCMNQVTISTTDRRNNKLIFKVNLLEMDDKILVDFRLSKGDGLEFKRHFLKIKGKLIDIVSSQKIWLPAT
T1 sequence (P10398 whole entry): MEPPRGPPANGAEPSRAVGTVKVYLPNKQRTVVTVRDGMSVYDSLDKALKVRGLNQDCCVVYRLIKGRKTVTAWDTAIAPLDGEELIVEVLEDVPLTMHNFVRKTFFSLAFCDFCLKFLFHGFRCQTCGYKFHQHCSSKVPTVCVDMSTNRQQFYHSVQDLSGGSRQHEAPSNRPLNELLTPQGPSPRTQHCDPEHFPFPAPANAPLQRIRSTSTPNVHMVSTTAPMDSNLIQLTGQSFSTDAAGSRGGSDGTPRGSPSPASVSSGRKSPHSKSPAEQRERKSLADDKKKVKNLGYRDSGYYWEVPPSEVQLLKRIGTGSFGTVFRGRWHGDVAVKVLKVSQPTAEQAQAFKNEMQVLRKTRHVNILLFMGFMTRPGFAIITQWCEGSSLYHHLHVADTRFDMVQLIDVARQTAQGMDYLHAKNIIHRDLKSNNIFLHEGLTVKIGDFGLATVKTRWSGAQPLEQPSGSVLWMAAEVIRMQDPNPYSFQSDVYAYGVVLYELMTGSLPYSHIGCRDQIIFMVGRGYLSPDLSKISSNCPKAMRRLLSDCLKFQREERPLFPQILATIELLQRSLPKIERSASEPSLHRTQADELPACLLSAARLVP

Cn1cc(-c2cnc3ccc(NC(=O)Nc4ccc(F)c(C(F)(F)F)c4)cc3n2)cn1 [51-106, 1-(4-Fluoro-3-(trifluoromethyl)phenyl)-3-(3-(1-methyl-1H-pyrazol-4-yl)quinoxalin-6-yl)urea]
% Inhibition (AMPKa1, AMPKa2; Lys1, VAVKILNR): 7.5% | % Inhibition (AMPKa1, AMPKa2; Lys2, DLKPENVLLDAHMNAK): 8.7% | inhibition at 5 µM (ARAF): ≤ 0% | inhibition at 5 µM (ATM): 7.4% | inhibition at 5 µM (BRAF, BRAF V600E): 0.5% | % Inhibition (CDK11, CDK8): 15.4% | inhibition at 5 µM (CDK4): 3.2% | inhibition at 5 µM (CHK1): ≤ 0% | % Inhibition (DNAPK; 5 µM, EHPFLVKGGEDLR): NB (NB = No Binding (≤ 0)) | inhibition at 5 µM (DNAPK; […]): ≤ 0% | % Inhibition [1]: NB (NB = No Binding (≤ 0)) | inhibition at 5 µM (ITPK1): ≤ 0% | inhibition at 5 µM (MAP2K1): 11% | inhibition at 5 µM (MAP2K7): ≤ 0% | inhibition at 5 µM (MAST4): ≤ 0% | % Inhibition [2]: 0.1% | % Inhibition (NEK1; 5 µM, Lys1, QYVIKEINISR): NB (NB = No Binding (≤ 0)) | inhibition at 5 µM (NEK1; Lys2, […]): ≤ 0% | inhibition at 5 µM (PAN3; IQKSSNFGYITSCYK): ≤ 0% | inhibition at 5 µM (PAN3; VMDPTKILITGK): 4.4% | % Inhibition (PCTAIRE1, PCTAIRE3): 4.8% | inhibition at 5 µM (PIP4K2C; TLVIKEVSSEDIADMHSNLSNYHQYIVK): 21.8% | inhibition at 5 µM (PIP4K2C; VKELPTLKDMDFLNK): ≤ 0% | inhibition at 5 µM (ROCK1): ≤ 0% | inhibition at 5 µM (RON): ≤ 0% | inhibition at 5 µM (SRPK1): 4.4% | % Inhibition (TAO1, TAO3): 4.9% | inhibition at 5 µM (TLK2; Lys1, YVAVKIHQLNK): 1.2% | inhibition at 5 µM (TLK2; Lys2, YLNEIKPPIIHYDLKPGNILLVNGTACGEIK): 1.7% | inhibition at 5 µM (ULK1): ≤ 0% | % Inhibition (Wnk1, Wnk2): NB (NB = No Binding (≤ 0)) | inhibition at 5 µM (ZAK): ≤ 0%
